Assay [1] deals with Myeloid Cell Leukemia 1 (Mcl-1) (Homo sapiens, UniProt Q07820). Description: Terbium labeled Mcl-1 HTRF binding assay (displacement of Cy5-labeled BIM BH3 peptide). Conditions: 25 pM Tb-Mcl-1, 8 nM Cy5 Bim peptide, [L] = 8 nM, Kd = 10 nM, 60 minutes at room temperature, read-out: Tb-MCL1 Ki. Here is the method: Terbium labeled Myeloid Cell Leukemia 1(Mcl-1) homogeneous time-resolved fluorescence (HTRF) binding assay utilizing the BIM BH3 peptide (H2N-(C/Cy5Mal) WIAQELRRIGDEFN-OH) as the binding partner for Mcl-1.
This assay evaluated inhibition of the BH3 domain : Mcl-1 interaction by measuring the displacement of Cy5-labeled BIM BH3 peptide (H2N-(C/Cy5Mal) WIAQELRRIGDEFN-OH) in the HTRF assay format.
The following assay and stock buffers were prepared for use in the assay: (a) Stock buffer: 10 mM Tris-HCl, pH=7.5 + 150 mM NaCl, filtered, sterilized, and stored at 4° C.; and (b) 1X assay buffer, where the following ingredients were added fresh to stock buffer: 2 mM dithiothreitol (DTT), 0.0025% Tween-20, 0.1 mg/mL bovine serum albumin (BSA). The 1X Tb-Mcl-1 + Cy5 Bim peptide solution was prepared by diluting the protein stock solution using the 1X assay buffer (b) to 25 pM Tb-Mcl-1 and 8 nM Cy5 Bim peptide.
Using the Acoustic ECHO, 100 nL of 100x test compound(s) were dispensed into individual wells of a white 384-well Perkin Elmer Proxiplate, for a final compound concentration of 1x and final DMSO concentration of 1%. Inhibitor control and neutral control (NC, 100 nL of 100% DMSO) were stamped into columns 23 and 24 of assay plate, respectively. Into each well of the plate was then dispensed 10µL of the 1X Tb-Mcl-1 + Cy5 Bim peptide solution. The plate was centrifuged with a cover plate at 1000 rpm for 1 minute, then incubated for 60 minutes at room temperature with plates covered. The TR-FRET signal was read on an BMG PHERAStar FSX MicroPlate Reader at room temperature using the HTRF optic module (HTRF: excitation: 337 nm, light source: laser, emission A: 665 nm, emission B: 620 nm, integration start: 60 µs, integration time: 400 µs).
The BMG PHERAStar FSX MicroPlate Reader was used to measure fluorescence intensity at two emission wavelengths - 665 nm and 620 nm - and report relative fluorescence units (RFU) for both emissions, as well as a ratio of the emissions (665 nm/620 nm)*10,000. The RFU values were normalized to percent inhibition as follows: • % inhibition = (((NC - IC) - compound - IC)) / (NC - IC)) *100 where IC (inhibitor control, low signal) = mean signal of 1X Tb-MCl-1 + Cy5 Bim peptide+ inhibitor control or 100% inhibition of Mcl-1; NC (neutral control, high signal) = mean signal 1X Tb-MCl-1 + Cy5 Bim peptide with DMSO only or 0% inhibition An 11-point dose response curve was generated to determine IC50 values (using GenData) based on the following equation:
where Y = % inhibition in the presence of X inhibitor concentration; Top = 100% inhibition derived from the IC (mean signal of Mcl-1 + inhibitor control); Bottom = 0% inhibition derived from the NC (mean signal of Mcl-1 + DMSO); Hillslope = Hill coefficient; and IC50 = concentration of compound with 50% inhibition in relation to top/neutral control (NC).
In this assay [L] = 8 nM and Kd = 10 nM
A general note: TR-FRET usually uses a lanthanide donor and a delayed reading to cut background.

Assay [2] relates to MOLP-8 human multiple myeloma cell line. Description: Caspase-Glo 3/7 apoptosis induction assay in MOLP-8 cells. The format is cell-based. Conditions: MOLP8 cells, 2 hours at 37° C.; 30 µM highest conc.; averaged over all runs on all batches. The text has this:
MCL-1 is a regulator of apoptosis and is highly over-expressed in tumor cells that escape cell death. The assay evaluates the cellular potency of small-molecule compounds targeting regulators of the apoptosis pathway, primarily MCL-1, Bfl-1, Bcl-2, and other proteins of the Bcl-2 family. Protein-protein inhibitors disrupting the interaction of anti-apoptotic regulators with BH3-domain proteins initiate apoptosis.
The Caspase-Glo® 3/7 Assay is a luminescent assay that measures caspase-3 and -7 activities in purified enzyme preparations or cultures of adherent or suspension cells. The assay provides a proluminescent caspase-3/7 substrate, which contains the tetrapeptide sequence DEVD. This substrate is cleaved to release aminoluciferin, a substrate of luciferase used in the production of light. Addition of the single Caspase-Glo® 3/7 Reagent in an “add-mix-measure” format results in cell lysis, followed by caspase cleavage of the substrate and generation of a “glow-type” luminescent signal.
This assay uses the MOLP-8 human multiple myeloma cell line, which is sensitive to MCL-1 inhibition.
Cell cultures were maintained between 0.2 and 2.0 ×10^6 cells/mL. The cells were harvested by collection in 50 mL conical tubes. The cells were then pelleted at 500 g for 5 mins before removing supernatant and resuspension in fresh pre-warmed culture medium. The cells were counted and diluted as needed.
The assay reagent was prepared by transferring the buffer solution to the substrate vial and mixing. The solution may be stored for up to 1 week at 4° C. with negligible loss of signal.
Compounds were delivered in assay-ready plates (Proxiplate) and stored at -20° C. Assays always include 1 reference compound plate containing reference compounds. The plates were spotted with 40 nL of compounds (0.5% DMSO final in cells; serial dilution; 30 µM highest conc. ⅓ dilution, 10 doses, duplicates). The compounds were used at room temperature and 4 µL of pre-warmed media was added to all wells except column 2 and 23. The negative control was prepared by adding 1% DMSO in media. The positive control was prepared by adding the appropriate positive control compound in final concentration of 60 µM in media. The plate was prepared by adding 4 µL negative control to column 23, 4 µL positive control to column 2 and 4 µL cell suspension to all wells in the plate. The plate with cells was then incubated at 37° C. for 2 hours. The assay signal reagent is the Caspase-Glo solution described above, and 8 µL was added to all wells. The plates were then sealed and measured after 30 minutes.
The activity of a test compound was calculated as percent change in apoptosis induction as follows:
• %Effect (AC50) = 100 - ((sample-LC) / (HC-LC)) *100 • %Control = (sample /HC)* 100 • %Control min = ((sample-LC) / (HC-LC)) *100

Drawing on US20230234965A1, “N-LINKED MACROCYCLIC 4-(PYRAZOL-5-YL)-INDOLE DERIVATIVES AS INHIBITORS OF MCL-1” (Janssen Pharmaceutica NV, priority 2020, published 2023), this text covers Ki and AC50 for 8 compounds.

Chain of Myeloid Cell Leukemia 1 (Mcl-1) (Q07820 whole entry, the tested form may be a part): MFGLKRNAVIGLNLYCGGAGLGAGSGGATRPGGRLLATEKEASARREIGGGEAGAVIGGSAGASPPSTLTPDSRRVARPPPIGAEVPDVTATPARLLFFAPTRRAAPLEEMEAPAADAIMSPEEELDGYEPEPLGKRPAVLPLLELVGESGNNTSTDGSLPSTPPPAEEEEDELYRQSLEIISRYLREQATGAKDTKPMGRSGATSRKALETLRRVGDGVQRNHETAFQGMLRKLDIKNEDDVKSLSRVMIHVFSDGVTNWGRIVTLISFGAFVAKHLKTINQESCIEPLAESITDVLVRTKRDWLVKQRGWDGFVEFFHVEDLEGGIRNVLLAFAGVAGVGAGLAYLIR

As usually defined, the Ki is a measure of affinity in units of concentration, obtained from inhibition or displacement. The term AC50 denotes the concentration giving half of the maximal activity seen. Lower therefore signals greater potency. Regarding `Cc1nn2c(c1C)-c1c(Cl)ccc3c1c(C)c(C(=O)O)n3CCCOc1cc(cc3ccccc13)SCc1cc(nn1C)CCC2` (single isomer, unassigned) [Compound 3], the inhibition constant (Ki) in assay [1] worked out at 0.1 nM. Moreover, the AC50 in assay [2] came to 131 nM.

In the case of `Cc1nn2c(c1C)-c1c(Cl)ccc3c1c(C)c(C(=O)O)n3CCCOc1cc(cc3cc(F)ccc13)CCc1cc(nn1C)CCC2` (single isomer, unassigned) [Compound 2], in assay [1], the inhibition constant Ki worked out at 3.28 nM. The compound further showed a concentration at half-maximal activity (AC50) in assay [2] of 1930 nM.

In the case of `Cc1nn2c(c1C)-c1c(Cl)ccc3c1c(C)c(C(=O)O)n3CCCOc1cc(cc3ccccc13)SCc1cnn(c1)CCC2` (single isomer, unassigned) [Compound 7], the inhibition constant (Ki) in assay [1] was 0.95 nM. The same compound showed an AC50 in assay [2] of 3180 nM.

Consider `Cc1nn2c(c1C)-c1c(Cl)ccc3c1c(C)c(C(=O)O)n3CCCOc1cc(cc3ccccc13)SCc1cc(nn1C)CCC2` (single isomer, unassigned) [Compound 4], for which the Ki in assay [1] was found to be 1.57 nM. In assay [2], this compound yielded an AC50 of 4010 nM.

Take `Cc1nn2c(c1C)-c1c(Cl)ccc3c1c(C)c(C(=O)O)n3CCCOc1cc(cc3cc(F)ccc13)CCc1cc(nn1C)CCC2` (single isomer, unassigned) [Compound 1]: the inhibitory constant (Ki) in assay [1] stood at 0.04 nM. Moreover, the AC50 in assay [2] was 26 nM.

On to `Cc1nn2c(c1C)-c1c(Cl)ccc3c1c(C)c(C(=O)O)n3CCCOc1cc(cc3ccccc13)SCc1cnn(c1)CCC2` (single isomer, unassigned) [Compound 8], for which, in assay [1], the Ki was 422 nM. Moreover, in assay [2], half-maximal activity (AC50) was put at 27500 nM.

In the case of `Cc1nn2c(c1C)-c1c(Cl)ccc3c1c(C)c(C(=O)O)n3CCCOc1cc(cc3ccccc13)SCc1cn(nn1)CCC2` (single isomer, unassigned) [Compound 5], the inhibitory constant (Ki) in assay [1] stood at 5.21 nM. The compound also returned a concentration at half-maximal activity (AC50) in assay [2] of 8180 nM.

Take `Cc1nn2c(c1C)-c1c(Cl)ccc3c1c(C)c(C(=O)O)n3CCCOc1cc(cc3ccccc13)SCc1cn(nn1)CCC2` (single isomer, unassigned) [Compound 6]: the Ki in assay [1] is 445 nM. The compound further gave a half-maximal activity concentration (AC50) in assay [2] of over 30000 nM.
